Assay results as given in ChEMBL document CHEMBL1147434, “Synthesis and biological results of the technetium-99m-labeled 4-nitroimidazole for imaging tumor hypoxia” (Bioorg Med Chem Lett, 2004).

What was measured:
Type in all cases: ADME, organism-based
Mus musculus [1] = experiment: In vivo biodistribution of radiolabeled [99mTc]-N4IPA in mice tumor/lung bearing S180 tumor cell line for 4 hours; details: ccrf s-180, 4 h
Mus musculus [2] = experiment: In vivo biodistribution of radiolabeled [99mTc]-N4IPA in mice kidney bearing S180 tumor cell line for 8 hours; details: ccrf s-180, 8 h
Mus musculus [3] = experiment: In vivo biodistribution of radiolabeled [99mTc]N4IPA in mice tumor/heart bearing S180 tumor cell line for 2 hours; details: ccrf s-180, 2 h
Mus musculus [4] = experiment: In vivo biodistribution of radiolabeled [99mTc]-N4IPA in mice tumor/heart bearing S180 tumor cell line for 8 hours; details: ccrf s-180, 8 h
Mus musculus [5] = experiment: In vivo biodistribution of radiolabeled [99mTc]N4IPA in mice kidney bearing S180 tumor cell line for 2 hours; details: ccrf s-180, 2 h
Mus musculus [6] = experiment: In vivo biodistribution of radiolabeled [99mTc]-N4IPA in mice blood bearing S180 tumor cell line for 30 minutes; details: ccrf s-180, 0.5 h
Mus musculus [7] = experiment: In vivo biodistribution of radiolabeled [99mTc]-N4IPA in mice blood bearing S180 tumor cell line for 2 hours; details: ccrf s-180, 2 h
Mus musculus [8] = experiment: In vivo biodistribution of radiolabeled [99mTc]N4IPA in mice tumor/muscle bearing S180 tumor cell line for 30 minutes; details: ccrf s-180, 0.5 h
Mus musculus [9] = experiment: In vivo biodistribution of radiolabeled [99mTc]N4IPA in mice tumor/muscle bearing S180 tumor cell line for 1 hour; details: ccrf s-180, 1 h
Mus musculus [10] = experiment: In vivo biodistribution of radiolabeled [99mTc]-N4IPA in mice muscle bearing S180 tumor cell line for 1 hour; details: ccrf s-180, 1 h
Mus musculus [11] = experiment: In vivo biodistribution of radiolabeled [99mTc]-N4IPA in mice heart bearing S180 tumor cell line for 30 minutes; details: ccrf s-180, 0.5 h
Mus musculus [12] = experiment: In vivo biodistribution of radiolabeled [99mTc]-N4IPA in mice kidney bearing S180 tumor cell line for 4 hours; details: ccrf s-180, 4 h
Mus musculus [13] = experiment: In vivo biodistribution of radiolabeled [99mTc]N4IPA in mice muscle bearing S180 tumor cell line for 2 hours; details: ccrf s-180, 2 h
Mus musculus [14] = experiment: In vivo biodistribution of radiolabeled [99mTc]N4IPA in mice tumor/lung bearing S180 tumor cell line for 2 hours; details: ccrf s-180, 2 h
Mus musculus [15] = experiment: In vivo biodistribution of radiolabeled [99mTc]-N4IPA in mice tumor/heart bearing S180 tumor cell line for 4 hours; details: ccrf s-180, 4 h
Mus musculus [16] = experiment: In vivo biodistribution of radiolabeled [99mTc]-N4IPA in mice tumor/muscle bearing S180 tumor cell line for 2 hours; details: ccrf s-180, 2 h
Mus musculus [17] = experiment: In vivo biodistribution of radiolabeled [99mTc]-N4IPA in mice lung bearing S180 tumor cell line for 2 hours; details: ccrf s-180, 2 h
Mus musculus [18] = experiment: In vivo biodistribution of radiolabeled [99mTc]-N4IPA in mice muscle bearing S180 tumor cell line for 30 minutes; details: ccrf s-180, 0.5 h
Mus musculus [19] = experiment: In vivo biodistribution of radiolabeled [99mTc]N4IPA in mice kidney bearing S180 tumor cell line for 1 hour; details: ccrf s-180, 1 h
Mus musculus [20] = experiment: In vivo biodistribution of radiolabeled [99mTc]N4IPA in mice heart bearing S180 tumor cell line for 4 hours; details: ccrf s-180, 4 h
Mus musculus [21] = experiment: In vivo biodistribution of radiolabeled [99mTc]N4IPA in mice tumor/blood bearing S180 tumor cell line for 4 hours; details: ccrf s-180, 4 h
Mus musculus [22] = experiment: In vivo biodistribution of radiolabeled [99mTc]-N4IPA in mice tumor/liver bearing S180 tumor cell line for 8 hours; details: ccrf s-180, 8 h
Mus musculus [23] = experiment: In vivo biodistribution of radiolabeled [99mTc]N4IPA in mice liver bearing S180 tumor cell line for 1 hour; details: ccrf s-180, 1 h
Mus musculus [24] = experiment: In vivo biodistribution of radiolabeled [99mTc]-N4IPA in mice tumor/muscle bearing S180 tumor cell line for 4 hours; details: ccrf s-180, 4 h
Mus musculus [25] = experiment: In vivo biodistribution of radiolabeled [99mTc]-N4IPA in mice tumor/lung bearing S180 tumor cell line for 8 hours; details: ccrf s-180, 8 h
Mus musculus [26] = experiment: In vivo biodistribution of radiolabeled [99mTc]-N4IPA in mice spleen bearing S180 tumor cell line for 4 hours; details: ccrf s-180, 4 h
Mus musculus [27] = experiment: In vivo biodistribution of radiolabeled [99mTc]-N4IPA in mice spleen bearing S180 tumor cell line for 2 hours; details: ccrf s-180, 2 h
Mus musculus [28] = experiment: In vivo biodistribution of radiolabeled [99mTc]-N4IPA in mice lung bearing S180 tumor cell line for 1 hour; details: ccrf s-180, 1 h
Mus musculus [29] = experiment: In vivo biodistribution of radiolabeled [99mTc]N4IPA in mice liver bearing S180 tumor cell line for 2 hours; details: ccrf s-180, 2 h
Mus musculus [30] = experiment: In vivo biodistribution of radiolabeled [99mTc]N4IPA in mice brain bearing S180 tumor cell line for 30 minutes; details: ccrf s-180, 0.5 h
Mus musculus [31] = experiment: In vivo biodistribution of radiolabeled [99mTc]N4IPA in mice heart bearing S180 tumor cell line for 2 hours; details: ccrf s-180, 2 h
Mus musculus [32] = experiment: In vivo biodistribution of radiolabeled [99mTc]-N4IPA in mice blood bearing S180 tumor cell line for 4 hours; details: ccrf s-180, 4 h
Mus musculus [33] = experiment: In vivo biodistribution of radiolabeled [99mTc]-N4IPA in mice heart bearing S180 tumor cell line for 1 hour; details: ccrf s-180, 1 h
Mus musculus [34] = experiment: In vivo biodistribution of radiolabeled [99mTc]N4IPA in mice tumor/blood bearing S180 tumor cell line for 1 hour; details: ccrf s-180, 1 h
Mus musculus [35] = experiment: In vivo biodistribution of radiolabeled [99mTc]N4IPA in mice liver bearing S180 tumor cell line for 8 hours; details: ccrf s-180, 8 h

SMILES: N/C(CCn1cnc([N+](=O)[O-])c1)=N\O
- Biodistribution (Mus musculus [1]): 2.94 % g-1
- Biodistribution (Mus musculus [2]): 2.26 % g-1
- Biodistribution (Mus musculus [3]): 3.39 % g-1
- Biodistribution (Mus musculus [4]): 5.39 % g-1
- Biodistribution (Mus musculus [5]): 3.8 % g-1
- Biodistribution (Mus musculus [6]): 0.7 % g-1
- Biodistribution (Mus musculus [7]): 0.22 % g-1
- Biodistribution (Mus musculus [8]): 3.66 % g-1
- Biodistribution (Mus musculus [9]): 4.25 % g-1
- Biodistribution (Mus musculus [10]): 0.11 % g-1
- Biodistribution (Mus musculus [11]): 0.24 % g-1
- Biodistribution (Mus musculus [12]): 3.14 % g-1
- Biodistribution (Mus musculus [13]): 0.05 % g-1
- Biodistribution (Mus musculus [14]): 2.24 % g-1
- Biodistribution (Mus musculus [15]): 4.47 % g-1
- Biodistribution (Mus musculus [16]): 8.12 % g-1
- Biodistribution (Mus musculus [17]): 0.17 % g-1
- Biodistribution (Mus musculus [18]): 0.15 % g-1
- Biodistribution (Mus musculus [19]): 5.44 % g-1
- Biodistribution (Mus musculus [20]): 0.08 % g-1
- Biodistribution (Mus musculus [21]): 1.88 % g-1
- Biodistribution (Mus musculus [22]): 1.41 % g-1
- Biodistribution (Mus musculus [23]): 0.79 % g-1
- Biodistribution (Mus musculus [24]): 8.6 % g-1
- Biodistribution (Mus musculus [25]): 3.09 % g-1
- Biodistribution (Mus musculus [26]): 0.08 % g-1
- Biodistribution (Mus musculus [27]): 0.09 % g-1
- Biodistribution (Mus musculus [28]): 0.22 % g-1
- Biodistribution (Mus musculus [29]): 0.46 % g-1
- Biodistribution (Mus musculus [30]): 0.04 % g-1
- Biodistribution (Mus musculus [31]): 0.12 % g-1
- Biodistribution (Mus musculus [32]): 0.18 % g-1
- Biodistribution (Mus musculus [33]): 0.14 % g-1
- Biodistribution (Mus musculus [34]): 1.19 % g-1
- Biodistribution (Mus musculus [35]): 0.23 % g-1
